Experimental findings from the METLIN SMRT retention time set (Domingo-Almenara et al. 2019) are described below.

The data set can be described thus: gradient 5% acetonitrile 3 min, to 50% in 2 min, to 85% in 15 min, held 3 min, 100 µL/min. Conditions: column: Zorbax Extend-C18 2.1 x 50 mm; eluents: water / acetonitrile, 0.1% formic acid. In short, it runs like this:
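Data were gathered over 3 months by HPLC coupled to a quadrupole time-of-flight mass spectrometer, operated in positive and negative ionization mode. Mixtures of ~100 pure standards ran on a Zorbax Extend-C18 column (2.1 × 50 mm, 1.8 μm) at 100 μL/min, with water and acetonitrile each containing 0.1% formic acid and dead and dwell volumes of 40 μL and 900 μL. Retention time was read from adduct peaks picked by computer and checked manually.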
Consider `Cc1cccc(CNC(=O)C2=C3CCCN3c3ccccc3S2(=O)=O)c1`, for which the RP-LC retention time came to 856 s.

Regarding `CCc1ccc(C2=C(C)C(N3CCCN(C(=O)CCC(C)C)CC3)=NS2(=O)=O)cc1`, the RP-LC retention time was 974 s.

Turning to `COC(=O)c1ccccc1Nc1c(-c2ccccc2)nc2cnc(Br)cn12`, the RP-LC retention time amounted to 1090 s.

The compound `Cc1ccc(C)c(N2CCN(C(=O)c3ccc(Cn4cncn4)cc3)CC2)c1` yielded an RP-LC retention time of 860 s. As for `CCN1CCN(CCCNc2nc(-c3ccc(Cl)cc3)nc3ccccc23)CC1`, the figure is 577 s; as for `CSc1ccc(NC(=O)C2CCN(c3cncnc3N3CCOCC3)CC2)cc1`, 669 s. `CCCn1cc(C2=CCN(C(=O)Nc3ccc(C)c(C)c3)CC2)c2cccnc21` showed an RP-LC retention time of 1010 s. Consider `CC(C)NC(=O)c1ccc(-c2ccc(Cl)cc2)o1`, for which the RP-LC retention time worked out at 874 s. As for `COc1ccc(-c2noc(-c3nnn4c3COC(c3ccc(F)cc3)C4)n2)cc1OC` (centres undefined), the figure is 1020 s. As for `CC(=O)Nc1ccc(SCC(=O)N(C(C)C)C(C)C)nn1`, the figure is 675 s. The same measure for `COc1cccc(N2CCN(C(=O)C3CCCN(c4nc5ncccc5n5cccc45)C3)CC2)c1` (centres undefined): 696 s; for `Cc1ccc(-c2cc3c4nnc(SCC(=O)Nc5ccccc5Cl)n4ccn3n2)cc1C`: 1020 s; for `CCOc1cc(=O)c(C(=O)N2CCN(c3ncccn3)CC2)nn1-c1ccc(C)cc1`: 751 s.

Consider `CCOc1ccc(S(=O)(=O)N2CCC3(CC2)c2nccn2CCN3C)cc1`, for which the RP-LC retention time was determined as 651 s.

`O=C(NCc1ccc(N2CCOCC2)cc1)c1cn2ccccc2n1` had an RP-LC retention time of 591 s. As for `CN(Cc1ccco1)C(=O)c1ccc2ncnc(N3CCCCC3)c2c1`, the figure is 632 s.

`COc1ccc(C2Cn3cnc(C(=O)N4CCC(C(=O)NCCC5=CCCCC5)CC4)c3CO2)cc1` (centres undefined) registered an RP-LC retention time of 831 s. In the case of `O=C(Nc1cc(F)cc(F)c1)N1CCCN(C2CCN(Cc3ccc(F)cc3)C2=O)CC1` (centres undefined), the RP-LC retention time amounted to 688 s. `CCc1ccc(S(=O)(=O)N2CCC(C(=O)NCc3csc(-c4ccccc4)n3)CC2)cc1` displayed an RP-LC retention time of 999 s. The same measure for `CCC1CCCCN1C(=O)c1cnc2nc(C)ccc2c1Nc1ccc(S(N)(=O)=O)cc1` (centres undefined): 589 s; for `O=C(NC1CC(=O)N(C2CC2)C1)c1ccc(Cl)s1` (centres undefined): 639 s. As for `CC(C)N(CCCNC(=O)c1cc2sccc2n1C)Cc1ccccc1`, the figure is 682 s. The same measure for `O=C(C1CCCO1)N1CCC(OCc2nc(C3CC3)no2)CC1` (centres undefined): 635 s; for `O=C(O)Cc1sc(Nc2ccc(F)c(F)c2F)nc1-c1ccccc1`: 977 s. The compound `O=C(Cn1cccc1-c1nnc(C2CCC2)o1)N1CCc2ccccc2C1` had an RP-LC retention time of 915 s. The same measure for `COCc1nncn1C1CN(C(=O)Cc2cc(OC)cc(OC)c2)C1`: 620 s; for `Cc1ccc(CNC(=O)CSCc2nc3cccnc3n2C2CCCCC2)o1`: 877 s; for `CCN(CC)C(=O)C1CCN(S(C)(=O)=O)c2cc(Cl)ccc2O1` (centres undefined): 821 s. The same measure for `CCCC(=O)N1CCCN(C2=NS(=O)(=O)C(c3ccc(F)cc3)=C2C)CC1`: 780 s; for `O=C(NC1CCCC1)N1c2ccccc2CC1c1nc(C2CC2)no1` (centres undefined): 972 s. The same measure for `NC(=O)C(=O)c1cn(Cc2ccc(F)cc2)c2ccccc12`: 811 s; for `CCCCNC(=O)c1nccnc1NC(=O)c1ccccc1`: 903 s; for `Cc1ccc(-n2ccc(=O)c(-c3nc(-c4cccc(F)c4)no3)n2)cc1`: 928 s.

With `O=C([C@@H]1C[C@H](Oc2ccccc2)CN1C(=O)c1cccs1)N1CCCC1`, the RP-LC retention time turned out to be 767 s.

For the compound `COc1ccc(Cl)cc1C(=O)NCc1c(C)nc2sc(C)nn12`, the RP-LC retention time amounted to 673 s. On to `Cc1nnc(-c2cn(CC(=O)NCCC3=CCCCC3)c3ccccc23)o1`, for which the RP-LC retention time worked out at 803 s. With `CC1CCN(c2nnc(-c3nc(C4CC4)no3)c3ccccc23)CC1`, the RP-LC retention time was 1140 s. The same measure for `O=C(Nc1c(-c2ccccc2)nc2ccccn12)c1ccccc1F`: 638 s; for `Cc1c(Cl)cccc1S(=O)(=O)Nc1ccc(Cn2cncn2)cc1`: 775 s. As for `CCN1CCN(C(=O)C2CCN(S(=O)(=O)c3ccc4c(c3)sc(=O)n4CC)CC2)CC1`, the figure is 602 s; as for `CCNC(=O)c1nc(Nc2ccc(F)cc2)c2ccccc2n1`, 688 s. For `CCSc1ccccc1C(=O)NCCS(=O)(=O)N1CCc2ccccc2C1`, the RP-LC retention time was 862 s. As for `CC(C)c1ccccc1NS(=O)(=O)c1cc(-c2nc(C(C)(C)C)cs2)cs1`, the figure is 603 s; as for `CS(=O)(=O)N1CCC(C(=O)NCc2csc(-c3cccs3)n2)CC1`, 694 s; as for `Cc1csc(-c2cc(S(=O)(=O)N3CCc4ccccc4C3)c(C)s2)n1`, 1160 s. As for `O=C(c1ccco1)N1CCc2c([nH]c3ccccc23)C1c1ccc(F)cc1` (centres undefined), the figure is 1080 s. The same measure for `COc1ccc(Nc2c(-c3ccc(OC)cc3)nc3nc(C)cc(C)n23)cc1`: 711 s; for `O=C(NCc1nn(Cc2ccccc2)c2ccccc12)c1cnccn1`: 858 s. In turn, `Cc1ccc(C(=O)N2CCC(COc3ccc(C(=O)NC4CC4)cc3)CC2)cc1C` registered an RP-LC retention time of 887 s.

The compound `O=c1cc(-c2ccncc2)nc(N2CCCC2)n1Cc1cccc(F)c1` showed an RP-LC retention time of 1230 s.

Compound `Cc1cnc(C(=O)N2CCCCCCNC(=O)[C@@H]3CCCC[C@@H]32)cn1` had an RP-LC retention time of 694 s. As for `COc1ccc(-c2nc(C)cc(C)c2CNS(=O)(=O)c2ccc(F)cc2)cc1`, the figure is 654 s. The compound `Nc1nc(N2CCc3ccccc3C2)ncc1C(=O)NCc1ccccc1` showed an RP-LC retention time of 737 s.

For the compound `CC(=O)Nc1ccc(NC(=O)C2CC(=O)N(CCc3c[nH]c4ccc(Cl)cc34)C2)cc1` (centres undefined), the RP-LC retention time was 679 s. The same measure for `Cc1ccc(F)c2c(=O)c3c([nH]c12)CCN(CC(=O)Nc1ccc(F)c(F)c1)C3`: 635 s; for `COc1ccc(OC)c(NC(=O)CSc2nccc(N3CCN(c4cc(C)ccc4C)CC3)n2)c1`: 1010 s; for `CC1=NS(=O)(=O)N(Cc2ccccc2)C=C1C(=O)OCc1ccc(C)cc1C`: 1220 s. As for `CC1Oc2ccc(S(=O)(=O)N3CCC(C(=O)NCc4ccccc4Cl)CC3)cc2NC1=O` (centres undefined), the figure is 816 s; as for `Cc1ccc(NC(=O)c2cc(C(C)C)n(C3CCS(=O)(=O)C3)n2)cc1` (centres undefined), 901 s; as for `Cc1c(C)n(CCCN2CCOCC2)c2ncn3nc(C(C)N4C(=O)c5ccccc5C4=O)nc3c12` (centres undefined), 662 s. As for `CC(C)C(=O)NCc1cnn(-c2ccc(C(=O)NCC3CCCO3)cc2)c1` (centres undefined), the figure is 640 s; as for `CN(C(=O)C1CCN(S(=O)(=O)c2cc(C(=O)N3CCCCCC3)cs2)CC1)C1CCCCC1`, 975 s; as for `CS(=O)(=O)N1CCC(OC2CCN(C(=O)c3ccc(Cl)cc3)CC2)CC1`, 767 s. `COc1ccc(-c2nc(Nc3nc(C)cc(C)n3)sc2CCC(=O)O)cc1` registered an RP-LC retention time of 702 s. The same measure for `CCCC(CCC)C(=O)NCc1nnnn1-c1ccc(OCC)cc1`: 882 s. `Cc1nc(-c2ccc(-c3noc(CNC(=O)Cc4ccccc4)n3)cc2)cs1` yielded an RP-LC retention time of 903 s. As for `O=C(CCC1CCN(c2cc(NC3CC3)ncn2)CC1)NCc1cccc(Cl)c1`, the figure is 680 s; as for `CC(C)CCN1C(=O)C2(NCCc3c2[nH]c2ccccc32)c2cc(Br)ccc21` (centres undefined), 835 s; as for `CN1C(=O)C(c2c(-c3ccccc3)[nH]c3[nH]c(=O)[nH]c(=O)c23)c2ccccc21` (centres undefined), 668 s. For `Cc1ccc(-c2[nH]ncc2CN2CCC3(CC2)CC(O)CCO3)cc1` (centres undefined), the RP-LC retention time is 588 s. The same measure for `CSc1nnc(-c2nn(C)c3c2CN(C(=O)c2ccccc2Cl)CC3)n1C`: 710 s; for `CC(C)n1c(N2CCCN(C(=O)c3ccccn3)CC2)cc(=O)n(C(C)C)c1=O`: 712 s. Compound `Cc1ccc(C(=O)Nc2nc(-c3ccc(Br)cc3)cs2)cc1[N+](=O)[O-]` yielded an RP-LC retention time of 1210 s. As for `Oc1ccc(-c2ccc(F)cc2)cc1CNC1CCCCC1`, the figure is 712 s; as for `CCOc1cccc(CNc2cc(-n3nc(C)cc3C)ncn2)c1`, 987 s.

Compound `CCOC(=O)CCNC(=O)N1CCc2cc(-c3ccc(C(=O)N4CCOCC4)cc3)ccc21` registered an RP-LC retention time of 724 s.

In turn, `COCCN1C(=O)c2ccccc2C(C(=O)NCCc2ccc(OC)cc2)C12CCCC2` (centres undefined) returned an RP-LC retention time of 807 s. As for `O=S(=O)(c1ccc(OC(F)(F)F)cc1)N1CCC(c2nnc(C(F)(F)F)o2)CC1`, the figure is 1000 s.

In turn, `COc1ccc(S(=O)(=O)N2CCCC(C(=O)Nc3ccc(Cl)c(Cl)c3)C2)cc1C` (centres undefined) registered an RP-LC retention time of 1180 s.
